Measurements published in patent publication US10309967B2, “Methods of diagnosing bipolar disorders and screening for therapeutic compounds” (National University Corporation Chiba University, priority 2015, dated 2019).
Entries after “also recorded” stand apart in the source; their conditions may differ.

System: CSF samples from rats
Assay: Metabolomics (CE-TOFMS) of CSF samples from rats chronically treated with Li or VPA
Format: in vivo, rat
Conditions: chronic (4-weeks) treatment via drinking water
Experimental: Data from human samples are presented as mean±standard deviation (SD). Statistical analysis was performed using SAS software version 9.3 (SAS Institute, Cary, N.C.). Analyses of metabolites between control and BD groups were performed using unpaired t-tests and Wilcoxon rank sum tests. A logistic regression model with a stepwise selection method was used for the multivariate analysis and multiple regression analysis (consistent with description in Allen et al., Technometrics. 1974; 16(1):125-127; and Miller et al., Chapman and Hall. 1974, which are incorporated in their entireties by reference herein). […] The Mann-Whitney U test (two-tailed) was used to evaluate changes in expression levels of the ACO and IDH genes between control and BD groups. Rat data are presented as mean±SD. To determine the effects of drug treatment, a one-way ANOVA, followed by the post hoc Dunnett's test was used. P values of less than 0.05 for two-tailed tests were considered statistically significant.
The volume (50 μL) of CSF sample was added to 450 μL it methanol containing internal standards, and mixed. Then, 450 μL chloroform and 200 μL Milli-Q water was added to the mixture. After mixture, the mixture was centrifuged at 2,300×g and 4° C. for 5 min. Subsequently, 800 μL of upper aqueous layer was centrifugally filtered through a Millipore 5-kDa cutoff filter at 9,100×g and 4° C. for 120 min to remove proteins. The filtrate was centrifugally concentrated and re-suspended in 25 μL of Milli-Q water for analysis.
Cationic compounds were measured in the positive mode of CE-TOFMS (Agilent CE-TOFMS system Machine No. 3, Fused silica capillary, i.d. 50 μM×80 cm), and anionic compounds were measured in the positive and negative modes of CE-MS/MS (Agilent CE system and Agilent 6400 TripleQuad LC/MS Machine No. QqQ01, Fused silica capillary, i.d. 50 μM×80 cm), as reported previously (Soga et al., Anal. Chem. 2000; 72(6):1236-1241; Soga et al., Anal Chem. 2002; 74(10):2233-2239; Soga et al., J. Proteome Res. 2003; 2(5):488-494, which are incorporated in their entireties by reference herein). Peaks detected by CE-TOFMS and CE-MS/MS were extracted using automatic integration software (MasterHands, Keio University, Tsuruoka, Japan) (Sugimoto et al., Metabolomics. 2009; 6(1):78-95, which is incorporated in its entirety by reference herein) and MassHunter Quantitative Analysis B.04.00, Agilent Technologies, Santa Clara, Calif., USA) in order to obtain peak information including m/z, migration time (MT), and peak area. The peaks were annotated with putative metabolites from the HMT metabolite database based on their MTs in CE and m/z values determined by TOFMS. The tolerance range for the peak annotation was configured at ±0.5 min for MT and ±10 ppm for m/z. In addition, concentrations of metabolites were calculated by normalizing the peak area of each metabolite with respect to the area of the internal standard and by using standard curves, which were obtained by three-point calibrations.
The CSF concentrations of 116 major metabolites from several pathways were measured. […] Male Sprague-Dawley rats (Japan SLC Inc., Shizuoka, Japan) aged 6 weeks old were used in this study. All rats were housed in groups of three per cage in a room maintained at 23° C.±2° C. and 60±10% humidity with a 12/12 hour light/dark cycle (lights on at 7:00 a.m.). The rats were given free access to food and water. Animal care and use were conducted in accordance with the Institutional Guidelines for Animal Care and Use of Otsuka Pharmaceutical Co., Ltd. (Tokushima, Japan). […] The drinking water was replaced twice a week. […] All animals were decapitated on day 30 after CSF sampling, and brain regions (prefrontal cortex, and hippocampus) were dissected rapidly on ice. Metabolomic analyses of rat CSF samples were performed as described herein.

O=C([O-])[O-].[Li+].[Li+] [Li, lithium carbonate]
2-Oxoisovaleric acid Mean (rat CSF): 4.3 µM | 3-Phosphoglyceric acid Mean (rat CSF): 0.3 µM | ADP-ribose Mean (rat CSF): 0.010 µM | Adenosine Mean (rat CSF): 0.2 µM | Alanin (Ala) Mean (rat CSF): 54 µM | Arginine (Arg) Mean (rat CSF): 31 µM | Argininosuccinic acid Mean (rat CSF): 1.0 µM | Asparagic acid (Asp) Mean (rat CSF): 1.8 µM | Asparagine (Asn) Mean (rat CSF): 4.8 µM | Carnosine Mean (rat CSF): 0.5 µM | Choline Mean (rat CSF): 7.5 µM | Citric acid Mean (rat CSF): 57 µM | Citrulline Mean (rat CSF): 3.8 µM | Creatine Mean (rat CSF): 60 µM | Creatinine Mean (rat CSF): 6.0 µM | Dihydroxyacetone phosphate Mean (rat CSF): 0.6 µM | Fructose 6-phosphate Mean (rat CSF): 0.2 µM | Glucose 6-phosphate Mean (rat CSF): 0.5 µM | Glutamic acid (Glu) Mean (rat CSF): 2.0 µM | Glutamine (Gln) Mean (rat CSF): 534 µM | Glutathione (GSSG) Mean (rat CSF): 1.1 µM | Glyceraldehyde 3-phosphate Mean (rat CSF): 0.9 µM | Glycerol 3-phosphate Mean (rat CSF): 7.2 µM | Glycine (Gly) Mean (rat CSF): 5.5 µM | Histidine (His) Mean (rat CSF): 7.1 µM | Homoserine Mean (rat CSF): 0.10 µM | Hydroxyproline Mean (rat CSF): 1.1 µM | Hypoxanthine Mean (rat CSF): 1.2 µM | Inosine monophosphate (IMP) Mean (rat CSF): 0.10 µM | Isocitric acid Mean (rat CSF): 2.0 µM | Isoleucine (Ile) Mean (rat CSF): 1.5 µM | Lactic acid Mean (rat CSF): 2,438 μM | Leucine (Leu) Mean (rat CSF): 5.1 µM | Lysine (Lys) Mean (rat CSF): 71 µM | Malic acid Mean (rat CSF): 2.2 µM | Methionine (Met) Mean (rat CSF): 4.4 µM | Mevalonic acid Mean (rat CSF): 0.003 µM | N-Carbamoylaspartic acid Mean (rat CSF): 0.04 µM | Nicotinamide Adenine dinucleotide (NAD^+) Mean (rat CSF): 0.8 µM | Nicotinamide Adenine dinucleotide phophate (NADP^+) Mean (rat CSF): 0.09 µM | Ornithine Mean (rat CSF): 2.3 µM | Phenylalanine (Phe) Mean (rat CSF): 3.1 µM | Phosphocreatine Mean (rat CSF): 6.9 µM | Phosphoenolpyruvic acid Mean (rat CSF): 0.2 µM | Pyruvic acid Mean (rat CSF): 29 µM | Ribose 5-phosphate Mean (rat CSF): 0.07 µM | Ribulose 5-phosphate Mean (rat CSF): 0.10 µM | S-Adenosylmethionine Mean (rat CSF): 0.5 µM | Serine (Ser) Mean (rat CSF): 82 µM | Succinic acid Mean (rat CSF): 9.0 µM | Threonine (Thr) Mean (rat CSF): 54 µM | Tryptophan (Trp) Mean (rat CSF): 1.2 µM | Tyrosine (Tyr) Mean (rat CSF): 5.4 µM | UDP-glucose Mean (rat CSF): 0.3 µM | Urea Mean (rat CSF): 4,332 μM | Uric acid Mean (rat CSF): 1.8 µM | Valine (Val) Mean (rat CSF): 2.3 µM | Xanthine Mean (rat CSF): 1.6 µM | cyclic AMP (cAMP) Mean (rat CSF): 0.007 µM | cyclic GMP (cGMP) Mean (rat CSF): 0.003 µM | CSF levels of argininosuccinic acid (rats, vs control): significantly increased | CSF levels of isocitrate (rats, vs control): not altered; also recorded: did not alter | CSF levels of succinic acid (rats, vs control): significantly increased

CCCC(CCC)C(=O)[O-].[Na+] [VPA, valproic acid sodium salt]
2-Oxoisovaleric acid Mean (rat CSF): 4.3 µM | 3-Phosphoglyceric acid Mean (rat CSF): 0.3 µM | ADP-ribose Mean (rat CSF): 0.01 µM | Adenosine Mean (rat CSF): 0.2 µM | Alanin (Ala) Mean (rat CSF): 50 µM | Arginine (Arg) Mean (rat CSF): 27 µM | Argininosuccinic acid Mean (rat CSF): 0.7 µM | Asparagic acid (Asp) Mean (rat CSF): 1.6 µM | Asparagine (Asn) Mean (rat CSF): 4.0 µM | Carnosine Mean (rat CSF): 0.5 µM | Choline Mean (rat CSF): 7.8 µM | Citric acid Mean (rat CSF): 44 µM | Citrulline Mean (rat CSF): 3.6 µM | Creatine Mean (rat CSF): 56 µM | Creatinine Mean (rat CSF): 6.2 µM | Dihydroxyacetone phosphate Mean (rat CSF): 0.8 µM | Fructose 6-phosphate Mean (rat CSF): 0.2 µM | Glucose 6-phosphate Mean (rat CSF): 0.5 µM | Glutamic acid (Glu) Mean (rat CSF): 1.6 µM | Glutamine (Gln) Mean (rat CSF): 598 µM | Glutathione (GSSG) Mean (rat CSF): 0.9 µM | Glyceraldehyde 3-phosphate Mean (rat CSF): 1.1 µM | Glycerol 3-phosphate Mean (rat CSF): 7.0 µM | Glycine (Gly) Mean (rat CSF): 6.5 µM | Histidine (His) Mean (rat CSF): 7.1 µM | Homoserine Mean (rat CSF): 0.09 µM | Hydroxyproline Mean (rat CSF): 1.1 µM | Hypoxanthine Mean (rat CSF): 1.4 µM | Inosine monophosphate (IMP) Mean (rat CSF): 0.1 µM | Isocitric acid Mean (rat CSF): 1.6 µM | Isoleucine (Ile) Mean (rat CSF): 1.2 µM | Lactic acid Mean (rat CSF): 2,361 μM | Leucine (Leu) Mean (rat CSF): 4.5 µM | Lysine (Lys) Mean (rat CSF): 85 µM | Malic acid Mean (rat CSF): 0.7 µM | Methionine (Met) Mean (rat CSF): 3.3 µM | N-Carbamoylaspartic acid Mean (rat CSF): 0.02 µM | Nicotinamide Adenine dinucleotide (NAD^+) Mean (rat CSF): 0.8 µM | Nicotinamide Adenine dinucleotide phophate (NADP^+) Mean (rat CSF): 0.09 µM | Ornithine Mean (rat CSF): 2.2 µM | Phenylalanine (Phe) Mean (rat CSF): 2.9 µM | Phosphocreatine Mean (rat CSF): 6.8 µM | Phosphoenolpyruvic acid Mean (rat CSF): 0.15 µM | Pyruvic acid Mean (rat CSF): 21 µM | Ribose 5-phosphate Mean (rat CSF): 0.06 µM | Ribulose 5-phosphate Mean (rat CSF): 0.08 µM | S-Adenosylmethionine Mean (rat CSF): 0.5 µM | Serine (Ser) Mean (rat CSF): 83 µM | Succinic acid Mean (rat CSF): 7.4 µM | Threonine (Thr) Mean (rat CSF): 41 µM | Tryptophan (Trp) Mean (rat CSF): 1.0 µM | Tyrosine (Tyr) Mean (rat CSF): 5.2 µM | UDP-glucose Mean (rat CSF): 0.3 µM | Urea Mean (rat CSF): 3,714 μM | Uric acid Mean (rat CSF): 1.8 µM | Valine (Val) Mean (rat CSF): 2.1 µM | Xanthine Mean (rat CSF): 1.5 µM | cyclic AMP (cAMP) Mean (rat CSF): 0.006 µM | cyclic GMP (cGMP) Mean (rat CSF): 0.003 µM | CSF levels of arginine (rats, vs control): significantly altered | CSF levels of argininosuccinic acid (rats, vs control): significantly altered | CSF levels of glutamine (rats, vs control): significantly altered | CSF levels of threonine (rats, vs control): significantly altered | CSF levels of tryptophan (rats, vs control): significantly altered | CSF levels of isocitrate (rats, vs control, sodium salt): not altered; also recorded: did not alter
